{"source": "patent US3980646A", "about": "“3-Methylpyrazole-5-carboxylates and medicaments containing these compounds” (Wulfing; Johann A., priority 1974, dated 1976)", "key": {"serum fatty acids (FFS)": {"tested_on": "serum fatty acids (FFS)", "experiment": "influence on the serum fatty acids (FFS) of normal animals", "assay_type": "in vivo, Female rats (Wistar)", "conditions": "normal female rats, 100 mg/kg oral, 1 hour after application", "experimental": "(§1) Investigations on a total of 260 Wistarrats were conducted with 7-[3-(N-methyl-N-2-hydroxyethyl)-amino-2-hydroxypropyl]-1,3-dimethylxanthine-3-methylpyrazole-5-carboxylate.\n(§2) Examination of the influence of 7-[3-(N-methyl-N-2-hydroxy-\n(§3) ethyl)-amino-2-hydroxypropyl]-1,3-dimethylxanthine-3-methyl-\n(§4) pyrazole-5-carboxylate on the serum fatty acids (FFS) of\nFemale rats, starve for 5 hours\n(§5) Dose: 100 mg/kg body weight, oral by esophagus probe,\n(§6) Blood removal: 1 hour after application"}, "serum cholesterol": {"tested_on": "serum cholesterol", "experiment": "influence on the serum cholesterol of repeated application", "assay_type": "in vivo, rats male (Wistar)", "conditions": "for serum cholesterol: individual animals, starve for 5 hours, 100 mg/kg; for serum cholesterol / serum cholesterol, mean (x10): 100 mg/kg x/day p.o.; for serum cholesterol, mean (x10): control 71.28", "experimental": "Influence on the serum cholesterol of repeated application of\n100 mg/kg x/day p.o. rats male, starve for 5 hours, ether narcosis, heart\nlast application 1 hour before killing (cf. FIG. 3)"}, "free fatty acids (FFS)": {"tested_on": "free fatty acids (FFS)", "experiment": "influence on the free fatty acids (FFS) in starved (hyperlipacidaemic) animals, hunger lipolysis", "assay_type": "in vivo, rats (Wistar)", "experimental": "as §1, §2, §3, §4\nMale Rats, starve for 17 hours\nas §5, §6\npyrazole-5-carboxylate on the free fatty acids (FFS) in\nstarved animals 1 hour after application\nComparative examinations of the influence of 7-[3-(N-methyl-\ncarboxylic acid on the free fatty acids (FFS) in starved\nanimals 1 hour after application\npyrazole-5-carboxylic acid on the free fatty acids (FFS)\nin starved animals 6 hours after application"}, "cholesterol": {"tested_on": "cholesterol", "experiment": "assaying for cholesterol in starved rats", "assay_type": "in vivo, Male Rats (Wistar)", "experimental": "Assaying for cholesterol\nMale Rats, starve for 18 hours, ether narcosis, heart puncture\n100 mg/kg of 7-[3-(N-methyl-N-"}}, "note": "Several values for one entry are separate records, joined by “and”; a condition that tells them apart may be missing. Equal values may be shown once. Entries after “also recorded” stand apart in the source; their conditions may differ.", "data": [{"smiles": "CN(CCO)CC(O)Cn1cnc2c1c(=O)n(C)c(=O)n2C.Cc1cc(C(=O)O)[nH]n1", "note": "(stereo not drawn) [7-[3-(N-methyl-N-2-hydroxyethyl)-amino-2-hydroxypropyl]-1,3-dimethylxanthine-3-methylpyrazole-5-carboxylate]", "values": [{"measurement": "FFS", "setting": "serum fatty acids (FFS); individual animals, starve for 5 hours, 100 mg/kg", "value": "0.51 μval/ml and 0.58 μval/ml and 0.52 μval/ml and 0.56 μval/ml and 0.57 μval/ml and 0.48 μval/ml and 0.54 μval/ml"}, {"measurement": "FFS, mean (φ)", "setting": "serum fatty acids (FFS); mean of test series, control φ 0.60", "value": 0.53, "unit": "μval/ml"}, {"measurement": "effect on the serum cholesterol on repeated application", "setting": "serum cholesterol; 100 mg/kg over 4 days, result in words", "value": "uniform and, in some cases, even increased effect; also recorded: still significantly reduced"}, {"measurement": "serum cholesterol", "setting": "serum cholesterol; 1st day", "value": "71.70 mg % and 49.06 mg % and 51.89 mg % and 67.92 mg % and 68.87 mg % and 52.83 mg % and 50.94 mg %"}, {"measurement": "serum cholesterol, mean (x10)", "setting": "serum cholesterol; 1st day", "value": 58.68, "unit": "mg %"}, {"measurement": "serum cholesterol", "setting": "serum cholesterol; 2nd day", "value": "37.4 mg % and 54.2 mg % and 55.2 mg % and 69.9 mg % and 65.0 mg % and 69.1 mg % and 39.4 mg % and 47.3 mg % and 49.3 mg % and 51.2 mg %"}, {"measurement": "serum cholesterol, mean (x10)", "setting": "serum cholesterol; 2nd day", "value": 53.8, "unit": "mg %"}, {"measurement": "serum cholesterol", "setting": "serum cholesterol; 3rd day", "value": "52.36 mg % and 71.24 mg % and 67.81 mg % and 50.64 mg % and 57.51 mg % and 64.38 mg % and 62.66 mg % and 68.67 mg % and 60.94 mg %"}, {"measurement": "serum cholesterol, mean (x10)", "setting": "serum cholesterol; 3rd day", "value": 62.75, "unit": "mg %"}, {"measurement": "serum cholesterol", "setting": "serum cholesterol; 4th day", "value": "42.98 mg % and 37.19 mg % and 52.07 mg % and 64.46 mg % and 80.99 mg % and 47.11 mg % and 65.29 mg % and 58.68 mg % and 50.41 mg % and 43.80 mg %"}, {"measurement": "serum cholesterol, mean (x10)", "setting": "serum cholesterol; 4th day", "value": 54.30, "unit": "mg %"}, {"measurement": "FFS", "setting": "free fatty acids (FFS); Table 2, individual animals, male rats, starve for 17 hours, 100 mg/kg oral, 1 hour, 100 mg/kg", "value": "0.29 μval/ml and 0.34 μval/ml and 0.54 μval/ml and 0.47 μval/ml and 0.67 μval/ml and 0.46 μval/ml and 0.44 μval/ml and 0.43 μval/ml and 0.39 μval/ml and 0.48 μval/ml and 0.51 μval/ml and 0.45 μval/ml"}, {"measurement": "FFS, mean (φ)", "setting": "free fatty acids (FFS); Table 2, mean, male rats, starve for 17 hours, 100 mg/kg oral, 1 hour, control φ 0.91, p<0.001", "value": 0.46, "unit": "μval/ml"}, {"measurement": "FFS", "setting": "free fatty acids (FFS); Table 4 dose-effect, starved animals, 1 hour, 2.0 mg/kg, n 10, control 0.87, ***p<0.001", "value": 0.51, "unit": "μval/ml"}, {"measurement": "FFS", "setting": "free fatty acids (FFS); Table 4 dose-effect, starved animals, 1 hour, 2.5 mg/kg, n 13, control 0.86", "value": 0.50, "unit": "μval/ml"}, {"measurement": "FFS", "setting": "free fatty acids (FFS); Table 4 dose-effect, starved animals, 1 hour, 5 mg/kg, n 5, control 0.83", "value": 0.43, "unit": "μval/ml"}, {"measurement": "FFS", "setting": "free fatty acids (FFS); Table 4 dose-effect, starved animals, 1 hour, 10 mg/kg, n 10, control 0.97", "value": 0.53, "unit": "μval/ml"}, {"measurement": "FFS", "setting": "free fatty acids (FFS); Table 4 dose-effect, starved animals, 1 hour, 20 mg/kg, n 5, control 0.90", "value": 0.56, "unit": "μval/ml"}, {"measurement": "FFS", "setting": "free fatty acids (FFS); Table 4 dose-effect, starved animals, 1 hour, 30 mg/kg, n 4, control 1.02", "value": 0.54, "unit": "μval/ml"}, {"measurement": "FFS", "setting": "free fatty acids (FFS); Table 4 dose-effect, starved animals, 1 hour, 40 mg/kg, n 5, control 1.02", "value": 0.48, "unit": "μval/ml"}, {"measurement": "FFS", "setting": "free fatty acids (FFS); Table 4 dose-effect, starved animals, 1 hour, 50 mg/kg, n 10, control 1.08, **p<0.001", "value": 0.40, "unit": "μval/ml"}, {"measurement": "FFS", "setting": "free fatty acids (FFS); Table 4 dose-effect, starved animals, 1 hour, 100 mg/kg, n 15, control 0.91, *p<0.001", "value": 0.46, "unit": "μval/ml"}, {"measurement": "FFS", "setting": "free fatty acids (FFS); Table 5, individual animals, starved, 1 hour after application, 50 mg/kg", "value": "0.39 μval/ml and 0.44 μval/ml and 0.46 μval/ml and 0.40 μval/ml and 0.35 μval/ml and 0.45 μval/ml and 0.37 μval/ml and 0.32 μval/ml and 0.41 μval/ml"}, {"measurement": "FFS, mean", "setting": "free fatty acids (FFS); Table 5, mean, n=10, starved, 1 hour after application, 50 mg/kg, control 1.08, p<0.001", "value": 0.40, "unit": "μval/ml"}, {"measurement": "FFS", "setting": "free fatty acids (FFS); Table 6, individual animals, starved, 6 hours after application, 50 mg/kg BW p.o., 50 mg/kg", "value": "0.39 μval/ml and 0.35 μval/ml and 0.43 μval/ml and 0.58 μval/ml and 0.54 μval/ml and 0.63 μval/ml and 0.77 μval/ml and 0.52 μval/ml and 0.51 μval/ml and 0.96 μval/ml and 0.59 μval/ml and 0.78 μval/ml and 0.53 μval/ml and 0.44 μval/ml and 0.64 μval/ml and 0.85 μval/ml and 0.32 μval/ml"}, {"measurement": "FFS, mean (x)", "setting": "free fatty acids (FFS); Table 6, mean, n=21, starved, 6 hours after application, 50 mg/kg BW p.o., control 0.86, p<0.001", "value": 0.57, "unit": "μval/ml"}, {"measurement": "lipolysis-inhibiting effect compared with free 3-methylpyrazole-5-carboxylic acid", "setting": "free fatty acids (FFS); equimolar dosage, especially 6 hours after application", "value": "more pronounced than that of the free 3-methylpyrazole-5-carboxylic acid"}, {"measurement": "cholesterol level of starved rats", "setting": "cholesterol; 100 mg/kg perorally, result in words", "value": "significantly reduces the cholesterol level"}, {"measurement": "Cholesterol", "setting": "cholesterol; individual animals, starve for 18 hours, 100 mg/kg per os 1 hour before killing, 100 mg/kg", "value": "78.45 mg % and 50.86 mg % and 57.76 mg % and 47.71 mg % and 62.07 mg % and 48.28 mg % and 65.52 mg % and 56.03 mg % and 38.79 mg %"}, {"measurement": "Cholesterol, mean (x10)", "setting": "cholesterol; mean of 10, starve for 18 hours, 100 mg/kg per os 1 hour before killing, control 75.69, p<0.001", "value": 57.07, "unit": "mg %"}]}]}
